For orientation: IC50 means the concentration that gives 50% inhibition.

Structures can show the parent of a compound that is named as a salt. Bounds are passed on as bounds.

The target of this experiment is HPK1 (Homo sapiens (Human), UniProt Q92918). The experiment is described as follows: HPK1 biochemical enzyme assay (microfluidic mobility shift assay). The note with it: 1.5 nM HPK1, ATP 1 mM final, 30 min preincubation, 60 min at RT, Caliper EZ Reader; read-out: HPK1 1000UMATP caliper IC50. Summed up: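 Mobility shift readout of HPK1 activity after a 60 min RT reaction with 1 mM ATP, 1 μM substrate and 5 mM MgCl2. Enzyme/substrate mix was first exposed to compounds for 30 min, using ten-point curves topping at 3 μM final.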
HPK1, sequence (Q92918 whole entry): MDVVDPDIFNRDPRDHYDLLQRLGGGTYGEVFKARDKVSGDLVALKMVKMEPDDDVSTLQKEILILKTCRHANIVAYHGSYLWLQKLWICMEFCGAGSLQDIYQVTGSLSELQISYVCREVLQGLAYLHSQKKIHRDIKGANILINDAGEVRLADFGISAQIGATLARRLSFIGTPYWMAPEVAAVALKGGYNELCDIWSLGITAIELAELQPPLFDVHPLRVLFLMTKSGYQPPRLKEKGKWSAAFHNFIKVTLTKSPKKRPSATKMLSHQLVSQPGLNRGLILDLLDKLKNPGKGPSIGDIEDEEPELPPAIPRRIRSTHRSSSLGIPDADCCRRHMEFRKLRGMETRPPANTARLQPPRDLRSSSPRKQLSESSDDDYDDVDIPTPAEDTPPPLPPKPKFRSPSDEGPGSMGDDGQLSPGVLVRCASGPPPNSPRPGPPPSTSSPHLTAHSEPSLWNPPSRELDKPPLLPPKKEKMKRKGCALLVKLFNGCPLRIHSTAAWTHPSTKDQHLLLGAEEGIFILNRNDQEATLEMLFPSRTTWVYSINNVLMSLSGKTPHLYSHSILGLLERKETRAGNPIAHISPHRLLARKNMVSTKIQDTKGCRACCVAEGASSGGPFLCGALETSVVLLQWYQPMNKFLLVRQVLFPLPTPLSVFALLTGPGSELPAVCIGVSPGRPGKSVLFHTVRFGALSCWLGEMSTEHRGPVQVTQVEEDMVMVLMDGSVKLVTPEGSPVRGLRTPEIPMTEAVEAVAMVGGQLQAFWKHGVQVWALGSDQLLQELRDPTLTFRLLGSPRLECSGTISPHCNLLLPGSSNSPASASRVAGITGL
In the case of `CNC1(C)CCN(c2ccc(Nc3cnc(-c4ccnc5c4ccn5C)c4c3C(=O)NC4)nc2)CC1` [I-244, 7-[[5-[4-methyl-4-(methylamino)-1-piperidyl]-2-pyridyl]-amino]-4-(1-methylpyrrolo [2,3-b]pyridin-4-yl)-2,3-dihydropyrrolo [3,4-c]pyridin-1-one], the IC50 was < 100 nM.

As to `CN1CCN(c2ccc(Nc3ccc(-c4nnc5ccccn45)c4c3C(=O)NC4)nc2)CC1` [I-85, 7-[[5-(4-methylpiperazin-1-yl)-2-pyridyl]amino]-4-([1,2,4]triazolo [4,3-a]pyridin-3-yl)isoindolin-1-one], the IC50 is < 100 nM.

In the case of `CN(C)Cc1nc(Nc2ccc(-c3cnc4cc(F)ccn34)c3c2C(=O)NC3)ccc1N1CCOC[C@@H](O)C1` (single isomer, unassigned) [I-820], the IC50 was < 100 nM.

As to `Cn1ccc2c(-c3ccc(Nc4ccc(N5CCNCC5)cn4)c4c3CNC4=O)ccnc21` [I-43], the IC50 was < 100 nM.

Regarding `O=C1NCc2c(-c3cnc4cc(F)ccn34)ccc(Nc3ccc(N4CCC(O)(CN5CCCC5)CC4)cn3)c21` [I-387], the IC50 was < 100 nM.

`CC(C)(O)[C@@H]1CCCN(c2ccc(Nc3cnc(-c4cnc5cc(F)ccn45)c4c3C(=O)NC4)nc2)C1` [I-226, (R)-4-(7-fluoroimidazo[1,2-a]pyridin-3-yl)-7-((5-(3-(2-hydroxypropan-2-yl)piperidin-1-yl)pyridin-2-yl)amino)-2,3-dihydro-1H-pyrrolo[3,4-c]pyridin-1-one]: the IC50 was in the range of 100 to 1000 nM.

For `Cc1ccc2ncc(-c3ccc(Nc4ccc(N5CCC(O)CC5)cn4)c4c3CNC4=O)n2c1` [I-134, 7-[[5-(4-hydroxy-1-piperidyl)-2-pyridyl]amino]-4-(6-methylimidazo [1,2-a]pyridin-3-yl)isoindolin-1-one], the IC50 was < 100 nM.

Regarding `CN1CCN(c2cccc(Nc3cnc(-c4cnc5ccccn45)c4c3C(=O)NC4)n2)CC1` [I-451, 4-imidazo[1,2-a]pyridin-3-yl-7-[[6-(4-methylpiperazin-1-yl)-2-pyridyl]amino]-2,3-dihydropyrrolo [3,4-c]pyridin-1-one Bis formate], the concentration for half-maximal inhibition (IC50) is < 100 nM.

As to `O=C1NCc2c(-c3cnn4c3CCCC4)ncc(Nc3ccc(N4CCC(O)CC4)cn3)c21` [I-330, 7-((5-(4-hydroxypiperidin-1-yl)pyridin-2-yl)amino)-4-(4,5,6,7-tetrahydropyra-zolo[1,5-a]pyridin-3-yl)-2,3-dihydro-1H-pyrrolo[3,4-c]pyridin-1-one], the concentration for half-maximal inhibition (IC50) was 100 to 1000 nM.

On to `CN(CCO)Cc1nc(Nc2ccc(-c3cnc4cc(F)ccn34)c3c2C(=O)NC3)ccc1C1CCOC1` (stereo in doubt) [I-734, (R)-4-(7-fluoroimidazo [1,2-a]pyridin-3-yl)-7-((6-(((2-hydroxyethy (methyl)amino)methyl)-5-(tetrahydrofuran-3-yl)pyridin-2-yl)amino)isoin-dolin-1-one], for which the IC50 was < 100 nM.

As to `Cn1ccc2c(-c3ccc(Nc4ccc(N5CCC(O)CC5)cn4)c4c3CNC4=O)ncnc21` [I-144, 7-[[5-(4-hydroxy-1-piperidyl)-2-pyridyl]amino]-4-(7-methylpyrrolo [2,3-d]pyrimidin-4-yl)isoindolin-1-one], the 50% inhibitory concentration (IC50) is < 100 nM.

With `CCn1ccc2c(-c3ccc(Nc4ccc(N5CCN(C)CC5)cn4)c4c3CNC4=O)ccnc21` [I-49], the IC50 was < 100 nM.

For `Cc1ccn2c(-c3ccc(Nc4ccc(N5CCC(O)CC5)cn4)c4c3CNC4=O)cnc2c1` [I-126, 7-[[5-(4-hydroxy-1-piperidyl)-2-pyridyl]amino]-4-(7-methylimidazo [1,2-a]pyridin-3-yl)isoindolin-1-one], the IC50 was < 100 nM.

In the case of `CN1CCN(c2ccc(Nc3ccc(-c4c(-c5ccccc5)[nH]c5ccccc45)c4c3C(=O)NC4)nc2)CC1` [I-40, 7-[[5-(4-methylpiperazin-1-yl)-2-pyridyl]amino]-4-(2-phenyl-1H-indol-3-yl)isoindolin-1-one], the IC50 was < 100 nM.

Regarding `CN1CC(c2cccc(Nc3cnc(-c4ccnc5c4ccn5C)c4c3C(=O)NC4)n2)C1` [I-432, 4-(1-methyl-1H-pyrrolo[2,3-b]pyridin-4-yl)-7-((6-(1-methylazetidin-3-yl)pyridin-2-yl)amino)-2,3-dihydro-1H-pyrrolo[3,4-c]pyridin-1-one], the IC50 was > 1000 nM.

Turning to “4-imidazo[1,2- a]pyridin-3-yl- 7-[(5-morpholino-2- pyridyl)-amino]-2,3- dihydropyrrolo [3,4-c]pyridin-1- one [I-198]”, the IC50 was in the range of 100 to 1000 nM.

Take `Cc1ccn2c(-c3ccc(Nc4ccc(N5CCO[C@H](C(C)(C)O)C5)cn4)c4c3CNC4=O)cnc2c1` [I-490, 7-[[5-[(2S)-2-(1-hydroxy-1-methylethyl)morpholin-4-yl]-2-pyridyl]amino]-4-(7-methylimidazo [1,2-a]pyridin-3-yl)isoindolin-1-one]: the half-inhibitory concentration (IC50) was < 100 nM.

On to `O=C1NCc2c(-c3cnc4cnccn34)ccc(Nc3ccc(N4CCCC(O)CC4)cn3)c21` (stereo not shown) [I-301, 7-((5-(4-hydroxyaze-pan-1-yl)pyridin-2-yl)amino)-4-(imidazo[1,2-a]pyrazin-3-yl)isoindolin-1-one], for which the IC50 was < 100 nM.

As for `Cc1ccn2c(-c3ccc(Nc4ccc([C@H]5CCOC5)cn4)c4c3CNC4=O)cnc2c1` [I-191, (R)-4-(7-methylimidazo [1,2-a]pyridin-3-yl)-7-((5-(tetrahydro-furan-3-yl)pyridin-2-yl)amino)isoin-dolin-1-one], the IC50 was < 100 nM.

As to `Cn1ccc2c(-c3ccc(Nc4cccc(N5CCC(O)CC5)n4)c4c3CNC4=O)ccnc21` [I-147, 7-[[6-(4-hydroxy-1-piperidyl)-2-pyridyl]amino]-4-(1-methylpyrrolo [2,3-b]pyridin-4-yl)isoindolin-1-one], the IC50 is 100 to 1000 nM.

Regarding `Cn1ccc2c(-c3ccc(Nc4ccc(CS(C)(=O)=O)cn4)c4c3CNC4=O)ccnc21` [I-293, 4-(1-methyl-1H-pyrrolo[2,3-b]pyridin-4-yl)-7-((5-((methylsulfonyl)methyl)pyridin-2-yl)amino)isoindolin-1-one], the IC50 is < 100 nM.

Turning to `Cn1ccc2c(-c3ncc(Nc4ccc(N5CCC[C@H](C(C)(C)O)C5)cn4)c4c3CNC4=O)ccnc21` [I-211, 7-[[5-[(3S)-3-(1-hydroxy-1-methyl-ethyl)-1-piperidyl]-2-pyridyl]-amino]-4-(1-methylpyrrolo [2,3-b]pyridin-4-yl)-2,3-dihydropyrrolo [3,4-c]pyridin-1-one], the IC50 is < 100 nM.

In the case of `CN1CCN(c2ccc(Nc3ccc(-c4ncnc5c4ccn5C)c4c3C(=O)NC4)nc2)CC1` [I-83, 7-[[5-(4-methylpiperazin-1-yl)-2-pyridyl]amino]-4-(7-methylpyrrolo [2,3-d]pyrimidin-4-yl)isoindolin-1-one], the IC50 was < 100 nM.

As to `CN1CCN(c2ccc(Nc3ccc(-c4ccnc5c4ccn5C)c4c3C(=O)NC4)nc2)CC1` [I-33, 7-[[5-(4-methylpiperazin-1-yl)-2-pyridyl]amino]-4-(1-methylpyrrolo [2,3-b]pyridin-4-yl)isoindolin-1-one], the IC50 is < 100 nM.

For `CN1CCN(c2cccc(Nc3ccc(-c4ccnc5c4ccn5C)c4c3C(=O)NC4)n2)CC1` [I-247, 7-[[6-(4-methylpiperazin-1-yl)-2-pyridyl]amino]-4-(1-methylpyrrolo [2,3-b]pyridin-4-yl)isoindolin-1-one], the 50% inhibitory concentration (IC50) was < 100 nM.

Regarding `C[C@@H]1CCn2c(-c3ccc(Nc4ccc(N5CCC(O)CC5)cn4)c4c3CNC4=O)cnc2C1` (single isomer, unassigned) [I-302], the concentration for half-maximal inhibition (IC50) lay in the range of 100 to 1000 nM.

Consider `CN(C)CCN1CCC(c2ccc(Nc3ccc(-c4cnc5cc(F)ccn45)c4c3C(=O)NC4)nc2)CC1=O` (stereo not shown) [I-406, 7-((5-(1-(2-(dimethylami-no)ethyl)-2-oxopiperidin-4-yl)pyridin-2-yl)amino)-4-(7-fluoroimidazo [1,2-a]pyridin-3-yl)isoindolin-1-one], for which the IC50 was < 100 nM.

As to `COc1ccc2[nH]cc(-c3ncc(Nc4ccc(N5CCN(C)CC5)cn4)c4c3CNC4=O)c2c1` [I-9, 4-(5-methoxy-1H-indol-3-yl)-7-[[5-(4-methylpiperazin-1-yl)-2-pyridyl]amino]-2,3-dihydropyrrolo [3,4-c]pyridin-1-one], the IC50 was 100 to 1000 nM.

As for `O=C1NCc2c(-c3cnn4cccnc34)ccc(Nc3ccc(N4CCNCC4)cn3)c21` [I-117, 7-[(5-piperazin-1-yl-2-pyridyl)amino]-4-pyrazolo[1,5-a]pyrimidin-3-yl-isoindolin-1-one], the IC50 is < 100 nM.

`CN1CCc2c(-c3ccc(Nc4ccc(N5CCNCC5)cn4)c4c3CNC4=O)ccnc21` [I-93, 4-(1-methyl-2,3-dihydropyrrolo [2,3-b]pyridin-4-yl)-7-[(5-piperazin-1-yl-2-pyridyl)amino] isoindolin-1-one]: the IC50 was < 100 nM.

Consider `CN1CCc2ccc(Nc3cnc(-c4ccnc5c4ccn5C)c4c3C(=O)NC4)nc2C1` [I-418, 4-(1-methyl-1H-pyrrolo[2,3-b]pyridin-4-yl)-7-((7-methyl-5,6,7,8-tetrahydro-1,7-naphthyridin-2-yl)amino)-2,3-dihydro-1H-pyrrolo[3,4-c]pyridin-1-one], for which the IC50 is > 1000 nM.

As for `CN1CCN(CC2(O)CCN(c3ccc(Nc4ccc(-c5cnc6cc(Cl)ccn56)c5c4C(=O)NC5)nc3)CC2)CC1` [I-437, 4-(7-chloroimidazo [1,2-a]pyridin-3-yl)-7-((5-(4-hydroxy-4-((4-methylpiperazin-1-yl)methyl)piper-idin-1-yl)pyridin-2-yl)amino)isoin-dolin-1-one], the IC50 is < 100 nM.

For `Cc1ccn2c(-c3ccc(Nc4ccc(N5CCN(C)CC5)cn4)c4c3CNC4=O)cnc2c1` [I-64, 4-(7-methylimidazo [1,2-a]pyridin-3-yl)-7-[[5-(4-methylpiperazin-1-yl)-2-pyridyl]amino] isoindolin-1-one], the IC50 was < 100 nM.

For `CN(C)Cc1nc(Nc2ccc(-c3cnc4cc(F)ccn34)c3c2C(=O)NC3)ccc1N1CCOC[C@H](O)C1` (single isomer, unassigned) [I-819], the IC50 is < 100 nM.

The values are drawn from patent US11021481B2, “Substituted isoindolin-1-ones and 2,3-dihydro-1h-pyrrolo[3,4-c]pyridin-1-ones as HPK1 antagonists” (Nimbus Saturn, Inc., priority 2019, dated 2021).
